Values after ≈ are worked out from the molar mass of the structure shown. Structures can show the parent of a compound that is named as a salt. Where two headings read alike, the source gives them in different places.

For test [1], the system named is Guinea pigs sensitized to ovalbumin (anaphylactic shock). The test is described as follows: Anaphylaxis in guinea pigs: protection against death after ovalbumin challenge (survival). It counts as in vivo, guinea pig. As to conditions: for ED50: Cavia porcellus, read-out: Anaphylaxis in guinea pigs oral effective dose in mg/kg: Survival. In outline:
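Guinea pigs (400–500 g) sensitized by subplantar ovalbumin antiserum, dosed orally 24 h later. ED50 is the oral dose protecting 50% of animals from death.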

Test [2] relates to histamine paw oedema in guinea pigs. The experiment in a line: Histamine paw oedema in guinea pigs. It counts as in vivo, guinea pig. As to conditions: for minimal effective dose: Cavia porcellus, read-out: Anaphylaxis in guinea pigs oral effective dose in mg/kg: Histamine oedema. In outline:
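Guinea pigs of 400–500 g were dosed orally with compound or saline 24 h after subplantar ovalbumin antiserum sensitisation in the left hind paw. Two hours after dosing, histamine 50 μg was injected subplantar into the right hind paw to induce oedema.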

In test [3] the test system is Guinea-pig ileum strips, histamine-induced contraction. The test is described as follows: Anti-histamine activity in "vitro": histamine-induced spasms of guinea-pig ileum strips. It counts as cell-based. The conditions noted are these: for IC50: Cavia porcellus, 5 min. On the procedure: The histamine--(0.5 mg/liter) induced spasms are recorded Kymographically with an isotonic lever giving a 5-fold magnification.

The mark [4] stands for this setting: Table I-b, estimated ED50, oral, protection against death after i.v. 0.6 mg ovalbumin.
[5] abbreviates: Table I-b, oral dose giving paw reaction below 10 units 10 minutes after 50 μg histamine s.p., 2 hours after dosing.
The mark [6] stands for this setting: Table I-b, histamine 0.5 mg/liter, 5 minutes incubation, concentration giving significant inhibition (50%) of the contraction, read-out: Histamine in "vitro" (ileum) effective conc.
Setting [7] is: Table I-e, estimated ED50, oral, protection against death after i.v. 0.6 mg ovalbumin.
Where [8] appears, read: Table I-e, oral dose giving paw reaction below 10 units 10 minutes after 50 μg histamine s.p., 2 hours after dosing.
The mark [9] stands for this setting: Table I-e, histamine 0.5 mg/liter, 5 minutes incubation, concentration giving significant inhibition (50%) of the contraction, read-out: Histamine in "vitro" (ileum) effective dose.

On to `c1ccc(C(c2ccccc2)N2CCN(CCCn3cnc4ccccc43)CC2)cc1` [I-b: M=H, R1=H, (CH2)3, R6=H, R7=H], for which, in test [1] (setting [4]), the ED50 was 0.08 mg/kg. Moreover, the minimal effective dose in test [2] (setting [5]) stood at 0.16 mg/kg. Moreover, in test [3] (setting [6]), the IC50 stood at 0.0025 mg/L (≈ 0.00609 µM).
Consider `CC(C)O.Cl.Cl.Cl.Cl.Cl.Cl.Clc1cccc(C(c2ccccc2)N2CCN(CCCn3cnc4ccccc43)CC2)c1.Clc1cccc(C(c2ccccc2)N2CCN(CCCn3cnc4ccccc43)CC2)c1.O.O` (stereo not drawn) [I-b: M=H, R1=H, (CH2)4, R6=3-Cl, R7=H, 1-[3-{4-[(3-chlorophenyl)phenylmethyl]-1-piperazinyl}propyl]-1H-benzimidazole trihydrochloride.hydrate.hemi-2-propanolate], for which the “Anaphylaxis in guinea pigs oral effective dose in mg/kg: Survival” value in test [1] (setting [4]) is 1.25 mg/kg. Besides, in test [2] (setting [5]), the “Anaphylaxis in guinea pigs oral effective dose in mg/kg: Histamine oedema” value is 1.25 mg/kg. Further, the “Histamine in "vitro" (ileum) effective conc.” value in test [3] (Table I-b, histamine 0.5 mg/liter, 5 minutes incubation, concentration giving significant inhibition (50%) of the contraction) is 0.01 mg/L.
In the case of `Fc1ccc(C(c2ccc(F)cc2)N2CCN(CCCCn3cnc4ccccc43)CC2)cc1` [I-b: M=H, R1=H, (CH2)4, R6=4-F, R7=4-F, 1-[4-{4-[bis(4-fluorophenyl)methyl]-1-piperazinyl}butyl]-1H-benzimidazole], in test [1] (setting [4]), the ED50 was 0.31 mg/kg. Further, the minimal effective dose in test [2] (setting [5]) was determined as 0.31 mg/kg. For the same molecule, the IC50 in test [3] (setting [6]) amounted to 0.005 mg/L (≈ 0.0109 µM).
As for `Fc1ccc(C(c2ccccc2)N2CCN(CCCCn3cnc4ccccc43)CC2)cc1` (stereo not drawn) [I-b: M=H, R1=H, (CH2)4, R6=4-F, R7=H, 1-[4-{4-[(4-fluorophenyl)phenylmethyl]-1-piperazinyl}butyl]-1H-benzimidazole], in test [1] (setting [4]), the ED50 is 0.08 mg/kg. The minimal effective dose in test [2] (setting [5]) is 0.16 mg/kg. Besides, in test [3] (setting [6]), the IC50 amounted to 0.005 mg/L (≈ 0.0113 µM).
The like results for `c1ccc(C(c2ccccc2)N2CCN(CCCCn3cnc4ccccc43)CC2)cc1` [I-b: M=H, R1=H, (CH2)4, R6=H, R7=H, 1-[4-[4-(diphenylmethyl)-1-piperazinyl]butyl}-1H-benzimidazole] were, in that order, 0.16 mg/kg, 0.16 mg/kg and 0.0025 mg/L (≈ 0.00589 µM).
The like results for `Sc1nc2ccccc2n1CCCN1CCN(C(c2ccccc2)c2ccccc2)CC1` [I-b: M=HS, R1=H, (CH2)3, R6=H, R7=H, 1-{3-[4-(diphenylmethyl)-1-piperazinyl]propyl}-1H-benzimidazole-2-thiol] were, in that order, 0.63 mg/kg, 1.25 mg/kg and 0.01 mg/L (≈ 0.0226 µM).
`Cl.Cl.O=c1oc2ccccc2n1CCCN1CCN(C(c2ccccc2)c2ccccc2)CC1` [I-c: Y=O, 3-{3-[4-(diphenylmethyl)-1-piperazinyl]propyl}-2(3H)benzoxazolone dihydrochloride]: the ED50 in test [1] (po) was 0.63 mg/kg. In test [2] (po, 2 h), the minimal effective dose is 2.5 mg/kg. Besides, the IC50 in test [3] (read-out: Histamine in "vitro" (ileum) effective conc. in mg/l) is 0.01 mg/L.
For the molecule `O=c1sc2ccccc2n1CCCN1CCN(C(c2ccccc2)c2ccccc2)CC1` [I-c: Y=S, 3-{3-[4-(diphenylmethyl)-1-piperazinyl]propyl}-2(3H)-benzothiazolone dihydrochloride.hemihydrate], the ED50 in test [1] (Table I-c, estimated ED50, oral, protection against death after i.v. 0.6 mg ovalbumin) is 1.25 mg/kg. Moreover, the minimal effective dose in test [2] (Table I-c, oral dose giving paw reaction below 10 units 10 minutes after 50 μg histamine s.p., 2 hours after dosing) was found to be 1.25 mg/kg. Also, the IC50 in test [3] (Table I-c, histamine 0.5 mg/liter, 5 minutes incubation, concentration giving significant inhibition (50%) of the contraction, read-out: Histamine in "vitro" (ileum) effective conc.) was 0.01 mg/L.
As to `O=c1[nH]c2ccccc2n1CCCN1CCN(C(c2ccc(Cl)cc2)c2cccnc2)CC1` (stereo not drawn) [I-e: Ar1=4-Cl-C6H4, Ar2=3-pyridinyl, 1-[3-{4-[(4-chlorophenyl)(3-pyridinyl)methyl]-1-piperazinyl}propyl]-1,3-dihydro-2H-benzimidazol-2-one], the ED50 in test [1] (setting [7]) was 1.25 mg/kg. Moreover, in test [2] (setting [8]), the minimal effective dose came to 2.5 mg/kg. Besides, the IC50 in test [3] (setting [9]) was 0.08 mg/L (≈ 0.173 µM).
The like results for `O=c1[nH]c2ccccc2n1CCCN1CCN(C(c2ccc(F)cc2)c2cccnc2)CC1` (stereo not drawn) [I-e: Ar1=4-FC6H4, Ar2=3-pyridinyl, 1-[3-{4-[(4-fluorophenyl)(3-pyridinyl)methyl]-1-piperazinyl}propyl]-1,3-dihydro-2H-benzimidazol-2-one] were, in that order, less than 2.5 mg/kg, less than 2.5 mg/kg and 0.08 mg/L (≈ 0.18 µM).
For `CCOC(=O)CCn1c(=O)n(CCCN2CCN(C(c3ccccc3)c3ccccc3)CC2)c2ccccc21` [ethyl 3-{3-[4-(diphenylmethyl)-1-piperazinyl]propyl}-2,3-dihydro-2-oxo-1H-benzimidazole-1-propanoate dihydrochloride. dihydrate], in test [1] (Table I-a, estimated ED50, oral, protection against death after i.v. 0.6 mg ovalbumin), the ED50 was 0.63 mg/kg. Besides, the minimal effective dose in test [2] (Table I-a, oral dose giving paw reaction below 10 units 10 minutes after 50 μg histamine s.p., 2 hours after dosing) was found to be 0.63 mg/kg. Also, in test [3] (Table I-a, histamine 0.5 mg/liter, 5 minutes incubation, concentration giving significant inhibition (50%) of the contraction, read-out: Histamine in "vitro" (ileum) effective conc.), the IC50 is 0.005 mg/L.
For the molecule `COC(=O)Nc1nc2ccccc2n1CCCN1CCN(C(c2ccccc2)c2ccccc2)CC1` [methyl [1-{3-[4-(diphenylmethyl)-1-piperazinyl]propyl}-1H-benzimidazol-2-yl]carbamate], in test [1] (setting [4]), the ED50 was 2.5 mg/kg. The minimal effective dose in test [2] (setting [5]) turned out to be 2.5 mg/kg. Besides, in test [3] (setting [6]), the IC50 was no more than 0.16 mg/L.

These data come from patent US4250176A, “Piperazine derivatives” (priority 1979, dated 1981).
